Measurements reported in the supplement of paper PMC6315032.

How the values were obtained:
Experiment in all cases: apparent dissociation constant (pKDapp, Kinobeads competition, Cheng-Prusoff corrected) (-log10 M); higher = tighter binding
Details in all cases: affinity matrix / lysate: Kinobeads, mixed HEK293/K-562/placenta lysate
KIAA1804 = KIAA1804 (UniProt Q5TCX8)
AURKA = AURKA (UniProt O14965)
PRKCB = PRKCB (UniProt P05771)
PRKCI = PRKCI (UniProt P41743)
SYK = SYK (UniProt P43405)
STK38 = STK38 (UniProt Q15208)
STK38, sequence (Q15208 whole entry, looked up): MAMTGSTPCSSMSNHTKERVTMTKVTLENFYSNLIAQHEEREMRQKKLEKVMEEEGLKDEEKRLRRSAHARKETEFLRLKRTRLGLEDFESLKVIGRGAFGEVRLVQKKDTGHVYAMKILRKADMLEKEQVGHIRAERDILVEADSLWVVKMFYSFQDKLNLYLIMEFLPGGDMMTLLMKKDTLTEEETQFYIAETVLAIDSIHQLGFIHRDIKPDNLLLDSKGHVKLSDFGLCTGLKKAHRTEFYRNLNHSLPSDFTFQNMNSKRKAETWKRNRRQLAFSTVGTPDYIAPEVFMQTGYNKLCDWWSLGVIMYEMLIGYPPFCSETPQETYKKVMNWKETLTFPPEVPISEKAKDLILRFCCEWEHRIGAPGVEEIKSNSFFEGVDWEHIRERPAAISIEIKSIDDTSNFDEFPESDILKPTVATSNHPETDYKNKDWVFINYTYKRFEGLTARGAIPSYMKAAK

MAPKAPK5 = MAPKAPK5 (UniProt Q8IW41)
AKT2 = AKT2 (UniProt P31751)
ULK1 = ULK1 (UniProt O75385)
ULK1, sequence (O75385 whole entry): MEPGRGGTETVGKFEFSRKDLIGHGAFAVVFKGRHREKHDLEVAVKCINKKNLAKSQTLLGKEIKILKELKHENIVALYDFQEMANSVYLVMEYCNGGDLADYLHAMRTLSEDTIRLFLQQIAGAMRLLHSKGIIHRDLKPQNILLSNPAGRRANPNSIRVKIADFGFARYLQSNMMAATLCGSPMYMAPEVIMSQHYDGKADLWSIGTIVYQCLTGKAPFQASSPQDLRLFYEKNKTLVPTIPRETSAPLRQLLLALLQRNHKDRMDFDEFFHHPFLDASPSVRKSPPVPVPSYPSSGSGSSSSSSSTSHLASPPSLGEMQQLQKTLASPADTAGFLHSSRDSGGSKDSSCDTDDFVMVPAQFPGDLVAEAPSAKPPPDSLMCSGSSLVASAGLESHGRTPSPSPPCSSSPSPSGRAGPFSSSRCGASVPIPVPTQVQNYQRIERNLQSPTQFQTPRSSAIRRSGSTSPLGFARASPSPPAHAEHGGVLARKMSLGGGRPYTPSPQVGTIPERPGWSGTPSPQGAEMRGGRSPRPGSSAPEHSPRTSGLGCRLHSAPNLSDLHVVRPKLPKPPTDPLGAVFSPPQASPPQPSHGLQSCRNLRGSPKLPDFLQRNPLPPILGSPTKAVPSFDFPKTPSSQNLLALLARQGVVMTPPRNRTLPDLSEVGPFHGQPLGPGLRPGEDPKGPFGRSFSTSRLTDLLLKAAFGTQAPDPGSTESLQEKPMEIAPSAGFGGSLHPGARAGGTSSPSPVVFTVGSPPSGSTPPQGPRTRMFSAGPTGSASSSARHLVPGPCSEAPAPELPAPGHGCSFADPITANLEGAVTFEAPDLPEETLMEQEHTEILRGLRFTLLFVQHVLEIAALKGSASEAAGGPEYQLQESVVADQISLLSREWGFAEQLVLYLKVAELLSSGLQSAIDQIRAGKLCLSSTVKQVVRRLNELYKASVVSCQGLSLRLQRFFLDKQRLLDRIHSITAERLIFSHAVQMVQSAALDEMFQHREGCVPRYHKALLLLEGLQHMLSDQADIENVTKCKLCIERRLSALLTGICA

KDR = KDR (UniProt P35968)
KDR, sequence (P35968 whole entry): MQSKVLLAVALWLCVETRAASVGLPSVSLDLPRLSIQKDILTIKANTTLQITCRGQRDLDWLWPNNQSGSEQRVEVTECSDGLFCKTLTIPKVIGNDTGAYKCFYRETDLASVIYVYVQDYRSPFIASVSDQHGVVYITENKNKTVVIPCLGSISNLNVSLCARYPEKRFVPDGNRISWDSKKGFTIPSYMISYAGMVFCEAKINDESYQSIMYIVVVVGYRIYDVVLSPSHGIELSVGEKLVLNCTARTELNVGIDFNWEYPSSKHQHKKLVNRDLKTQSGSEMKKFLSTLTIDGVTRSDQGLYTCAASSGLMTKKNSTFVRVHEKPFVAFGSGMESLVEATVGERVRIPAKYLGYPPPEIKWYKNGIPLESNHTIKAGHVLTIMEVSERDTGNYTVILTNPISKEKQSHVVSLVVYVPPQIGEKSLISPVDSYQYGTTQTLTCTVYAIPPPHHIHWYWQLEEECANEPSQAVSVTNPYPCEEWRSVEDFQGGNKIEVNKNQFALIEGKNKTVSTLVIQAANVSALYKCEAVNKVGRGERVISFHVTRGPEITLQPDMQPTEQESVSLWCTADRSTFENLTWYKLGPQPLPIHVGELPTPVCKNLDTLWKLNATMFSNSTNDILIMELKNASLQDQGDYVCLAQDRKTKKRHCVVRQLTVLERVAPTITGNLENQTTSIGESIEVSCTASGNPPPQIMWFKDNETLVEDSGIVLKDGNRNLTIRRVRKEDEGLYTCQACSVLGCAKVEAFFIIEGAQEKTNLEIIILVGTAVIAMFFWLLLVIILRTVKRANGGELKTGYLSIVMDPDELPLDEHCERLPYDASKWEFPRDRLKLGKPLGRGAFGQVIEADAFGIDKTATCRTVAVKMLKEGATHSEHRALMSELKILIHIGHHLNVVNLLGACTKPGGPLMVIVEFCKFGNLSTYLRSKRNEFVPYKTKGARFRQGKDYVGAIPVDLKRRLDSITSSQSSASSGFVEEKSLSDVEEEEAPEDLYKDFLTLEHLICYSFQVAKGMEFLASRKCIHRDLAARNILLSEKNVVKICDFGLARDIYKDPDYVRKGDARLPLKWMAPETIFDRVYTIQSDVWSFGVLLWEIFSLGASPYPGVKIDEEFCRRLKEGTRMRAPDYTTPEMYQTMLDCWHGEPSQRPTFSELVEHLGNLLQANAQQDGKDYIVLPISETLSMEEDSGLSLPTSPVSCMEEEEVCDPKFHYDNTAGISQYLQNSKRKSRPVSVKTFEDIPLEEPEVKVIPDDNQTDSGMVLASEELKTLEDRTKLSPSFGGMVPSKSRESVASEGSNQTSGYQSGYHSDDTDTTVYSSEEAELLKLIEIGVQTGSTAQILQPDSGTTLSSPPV

TGFBR2 = TGFBR2 (UniProt P37173)
MAPK8 = MAPK8 (UniProt P45983)
AAK1 = AAK1 (UniProt Q2M2I8)
FGFR1 = FGFR1 (UniProt P11362)
MAP3K6 = MAP3K6 (UniProt O95382)
SRC = SRC (UniProt P12931)
MAST3 = MAST3 (UniProt O60307)
NEK3 = NEK3 (UniProt P51956)
MST1R = MST1R (UniProt Q04912)
LIMK1 = LIMK1 (UniProt P53667)
DSTYK = DSTYK (UniProt Q6XUX3)
CDC42BPB = CDC42BPB (UniProt Q9Y5S2)
PLK1 = PLK1 (UniProt P53350)
BUB1 = BUB1 (UniProt O43683)
BUB1, sequence (O43683 whole entry, looked up): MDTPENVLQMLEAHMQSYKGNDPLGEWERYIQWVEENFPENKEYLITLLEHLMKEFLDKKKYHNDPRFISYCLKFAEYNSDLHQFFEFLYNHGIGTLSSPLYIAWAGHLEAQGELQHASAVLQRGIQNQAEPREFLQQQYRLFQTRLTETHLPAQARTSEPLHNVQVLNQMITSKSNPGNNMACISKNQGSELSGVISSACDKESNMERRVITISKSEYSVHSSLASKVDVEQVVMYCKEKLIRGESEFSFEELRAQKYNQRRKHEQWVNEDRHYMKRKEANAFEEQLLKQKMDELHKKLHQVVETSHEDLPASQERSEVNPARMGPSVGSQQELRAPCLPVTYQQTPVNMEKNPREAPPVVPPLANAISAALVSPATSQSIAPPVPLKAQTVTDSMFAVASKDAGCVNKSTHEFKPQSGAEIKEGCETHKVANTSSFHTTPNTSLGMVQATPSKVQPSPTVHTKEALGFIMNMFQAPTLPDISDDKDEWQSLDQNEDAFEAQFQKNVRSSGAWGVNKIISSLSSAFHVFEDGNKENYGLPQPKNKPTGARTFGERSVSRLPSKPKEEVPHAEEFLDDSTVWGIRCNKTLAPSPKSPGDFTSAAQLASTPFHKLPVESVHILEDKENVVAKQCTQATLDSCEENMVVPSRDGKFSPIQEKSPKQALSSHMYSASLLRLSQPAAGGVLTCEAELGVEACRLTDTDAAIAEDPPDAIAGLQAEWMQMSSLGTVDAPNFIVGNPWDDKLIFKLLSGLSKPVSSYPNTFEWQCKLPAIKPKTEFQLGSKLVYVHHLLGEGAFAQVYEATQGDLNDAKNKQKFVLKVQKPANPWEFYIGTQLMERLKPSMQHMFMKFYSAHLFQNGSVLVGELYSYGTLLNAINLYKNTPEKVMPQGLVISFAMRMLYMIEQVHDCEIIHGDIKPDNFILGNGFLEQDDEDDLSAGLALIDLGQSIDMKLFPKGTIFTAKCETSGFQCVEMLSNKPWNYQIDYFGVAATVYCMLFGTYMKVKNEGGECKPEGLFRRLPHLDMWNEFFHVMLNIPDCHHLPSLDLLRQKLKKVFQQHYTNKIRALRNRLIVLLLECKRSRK

MAP2K2 = MAP2K2 (UniProt P36507)
AURKB = AURKB (UniProt Q96GD4)
PRKAA2 = PRKAA2 (UniProt P54646)
PRKAA2, sequence (P54646 whole entry, looked up): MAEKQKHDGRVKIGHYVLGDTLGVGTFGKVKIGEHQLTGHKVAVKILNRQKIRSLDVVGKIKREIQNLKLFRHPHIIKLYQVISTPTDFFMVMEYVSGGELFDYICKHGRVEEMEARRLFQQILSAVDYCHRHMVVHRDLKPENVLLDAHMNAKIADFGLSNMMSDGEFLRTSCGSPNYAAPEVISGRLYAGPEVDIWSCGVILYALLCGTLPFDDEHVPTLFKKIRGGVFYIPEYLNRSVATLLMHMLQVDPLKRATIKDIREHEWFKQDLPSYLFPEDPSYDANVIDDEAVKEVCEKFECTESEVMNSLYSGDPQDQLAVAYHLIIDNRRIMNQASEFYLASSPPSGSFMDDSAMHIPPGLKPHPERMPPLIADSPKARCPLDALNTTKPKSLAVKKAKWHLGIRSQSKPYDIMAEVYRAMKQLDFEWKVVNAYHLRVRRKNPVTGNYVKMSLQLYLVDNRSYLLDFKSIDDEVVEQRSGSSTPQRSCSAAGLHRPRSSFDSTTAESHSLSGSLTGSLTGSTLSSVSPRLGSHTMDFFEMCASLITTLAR

CIT = CIT (UniProt O14578)
HIPK1 = HIPK1 (UniProt Q86Z02)
BMX = BMX (UniProt P51813)
EGFR = EGFR (UniProt P00533)
MAPK6 = MAPK6 (UniProt Q16659)
CDK2 = CDK2 (UniProt P24941)
BTK = BTK (UniProt Q06187)

AURKA, sequence (O14965 whole entry): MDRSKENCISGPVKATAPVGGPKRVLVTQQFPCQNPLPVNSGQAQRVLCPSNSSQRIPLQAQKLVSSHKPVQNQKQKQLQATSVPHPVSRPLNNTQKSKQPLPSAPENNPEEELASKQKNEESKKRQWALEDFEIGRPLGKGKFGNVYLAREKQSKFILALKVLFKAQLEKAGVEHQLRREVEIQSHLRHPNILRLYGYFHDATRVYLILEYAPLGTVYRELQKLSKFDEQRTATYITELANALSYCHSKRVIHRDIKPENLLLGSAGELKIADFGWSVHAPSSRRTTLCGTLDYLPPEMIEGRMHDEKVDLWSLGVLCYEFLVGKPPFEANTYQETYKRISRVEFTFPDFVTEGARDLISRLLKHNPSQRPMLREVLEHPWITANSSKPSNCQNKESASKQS

apparent dissociation constant (-log10 M) (KIAA1804) | apparent dissociation constant (-log10 M) (AURKA) | apparent dissociation constant (-log10 M) (PRKCB) | apparent dissociation constant (-log10 M) (PRKCI) | apparent dissociation constant (-log10 M) (SYK) | apparent dissociation constant (-log10 M) (STK38) | apparent dissociation constant (-log10 M) (MAPKAPK5) | apparent dissociation constant (-log10 M) (AKT2) | apparent dissociation constant (-log10 M) (ULK1) | apparent dissociation constant (-log10 M) (KDR) | apparent dissociation constant (-log10 M) (TGFBR2) | apparent dissociation constant (-log10 M) (MAPK8) | apparent dissociation constant (-log10 M) (AAK1) | apparent dissociation constant (-log10 M) (FGFR1) | apparent dissociation constant (-log10 M) (MAP3K6) | apparent dissociation constant (-log10 M) (SRC) | apparent dissociation constant (-log10 M) (MAST3) | apparent dissociation constant (-log10 M) (NEK3) | apparent dissociation constant (-log10 M) (MST1R) | apparent dissociation constant (-log10 M) (LIMK1) | apparent dissociation constant (-log10 M) (DSTYK) | apparent dissociation constant (-log10 M) (CDC42BPB) | apparent dissociation constant (-log10 M) (PLK1) | apparent dissociation constant (-log10 M) (BUB1) | apparent dissociation constant (-log10 M) (MAP2K2) | apparent dissociation constant (-log10 M) (AURKB) | apparent dissociation constant (-log10 M) (PRKAA2) | apparent dissociation constant (-log10 M) (CIT) | apparent dissociation constant (-log10 M) (HIPK1) | apparent dissociation constant (-log10 M) (BMX) | apparent dissociation constant (-log10 M) (EGFR) | apparent dissociation constant (-log10 M) (MAPK6) | apparent dissociation constant (-log10 M) (CDK2) | apparent dissociation constant (-log10 M) (BTK) | Compound
< 6 | < 6 | < 6 | < 6 | < 6 | < 6 | < 6 | < 6 | < 6 | < 6 | < 6 | < 6 | < 6 | < 6 | < 6 | < 6 | < 6 | < 6 | < 6 | < 6 | < 6 | < 6 | < 6 | < 6 | < 6 | < 6 | < 6 | < 6 | < 6 | < 6 | < 6 | < 6 | < 6 | < 6 | CCNC(=O)Nc1ccc(-c2nc(N3CCOC[C@@H]3C)c3c(n2)C(C)(C)S(=O)(=O)C3)cc1 [CZ415]
< 6 | < 6 | < 6 | < 6 | < 6 | < 6 | < 6 | < 6 | < 6 | < 6 | < 6 | < 6 | < 6 | < 6 | < 6 | < 6 | < 6 | < 6 | < 6 | < 6 | < 6 | < 6 | < 6 | < 6 | < 6 | < 6 | < 6 | < 6 | < 6 | < 6 | < 6 | < 6 | < 6 | < 6 | COc1ccc(-c2ccc3c(N4CCOC[C@@H]4C)nc(N4CCOC[C@@H]4C)nc3n2)cc1CO [AZD8055]
